How the values were obtained:
[1] = system: HAP1 MTAP-deleted cell line; test: Viability assay, MTAP-deleted cell line; assay type: cell-based; conditions: Homo sapiens, HAP1, viability assay, MTAP-deleted cell line; read-out: HAP1 MTAP deleted viability
Text: Table 1 additionally indicates IC50 values in a viability assay for the MTAP-deleted cell line (column 10), indicating the effect of treatment with compound on cell survival.

PRMT5 [2] = target: T1, PRMT5 (Homo sapiens, UniProt O14744); test: PRMT5 biochemical IC50 assay with no cofactor; conditions: PRMT5, no cofactor; read-out: No Cofactor/rel IC50
T1 construct: purchased Viva (custom protein)
T1 sequence (O14744 whole entry): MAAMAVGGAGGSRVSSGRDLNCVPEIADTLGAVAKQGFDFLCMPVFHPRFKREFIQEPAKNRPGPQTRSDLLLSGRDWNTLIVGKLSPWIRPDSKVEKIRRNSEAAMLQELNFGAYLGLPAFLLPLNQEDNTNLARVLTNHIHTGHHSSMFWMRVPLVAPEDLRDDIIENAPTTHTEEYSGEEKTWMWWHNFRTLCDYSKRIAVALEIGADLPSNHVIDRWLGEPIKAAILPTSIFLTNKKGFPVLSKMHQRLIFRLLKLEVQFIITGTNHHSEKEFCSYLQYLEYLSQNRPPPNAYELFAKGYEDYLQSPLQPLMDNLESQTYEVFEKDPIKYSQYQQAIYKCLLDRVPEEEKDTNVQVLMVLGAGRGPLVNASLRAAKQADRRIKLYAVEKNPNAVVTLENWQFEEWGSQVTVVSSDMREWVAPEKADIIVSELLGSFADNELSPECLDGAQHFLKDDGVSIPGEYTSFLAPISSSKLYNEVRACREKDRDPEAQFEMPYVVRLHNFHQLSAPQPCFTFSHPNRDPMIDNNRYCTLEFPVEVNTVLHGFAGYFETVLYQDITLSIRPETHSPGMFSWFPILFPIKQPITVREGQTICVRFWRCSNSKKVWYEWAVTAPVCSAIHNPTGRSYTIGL
T1 sequence (Q9BQA1 whole entry partner): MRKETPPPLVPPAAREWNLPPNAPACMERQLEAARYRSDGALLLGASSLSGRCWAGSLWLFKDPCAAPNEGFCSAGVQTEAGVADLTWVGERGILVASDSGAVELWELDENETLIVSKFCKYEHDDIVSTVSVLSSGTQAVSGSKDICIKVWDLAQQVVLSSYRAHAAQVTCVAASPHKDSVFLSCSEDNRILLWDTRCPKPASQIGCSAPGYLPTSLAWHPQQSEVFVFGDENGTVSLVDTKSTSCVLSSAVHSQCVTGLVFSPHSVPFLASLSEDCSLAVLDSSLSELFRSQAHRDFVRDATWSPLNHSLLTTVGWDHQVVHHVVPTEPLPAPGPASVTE
Text: Table 1 indicates IC50 values (μM) against PRMT5 for exemplary compounds in the presence of SAM as cofactor, with no cofactor, and with MTA as cofactor, respectively (columns 4-6). […] Ki values can be calculated from the IC50 values as described in the Examples section. As detailed in the Examples section, for the assay performed in the presence of SAM, IC50=Ki×1.5 (Ki=IC50/1.5).

PRMT5 [3] = target: T1, PRMT5; test: PRMT5 biochemical IC50 assay with MTA as cofactor; conditions: PRMT5, MTA as cofactor; read-out: MTA IC50
[4] = system: HAP1 MTAP-intact cell line; test: SDMA in-cell western assay, HAP1 MTAP-intact; assay type: cell-based; conditions: Homo sapiens, HAP1, SDMA in-cell western, HAP1 MTAP-intact; read-out: MTAP HAP1 intact IC50
Outline: (§1)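 Compounds were tested in HAP1 cells differing only in MTAP status (endogenous expression versus null). Cellular SDMA levels were then measured by in-cell western, giving an IC50 in each background.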

[5] = system: HAP1 MTAP-deleted cell line; test: SDMA in-cell western assay, HAP1 MTAP-deleted; assay type: cell-based; conditions: for IC50: Homo sapiens, HAP1, SDMA in-cell western, HAP1 MTAP-deleted, read-out: HAP1 MTAP deleted IC50; for MTAP intact/deleted ratio: IC50 ratio HAP1 MTAP-intact / HAP1 MTAP-deleted, SDMA in-cell western
Outline: as §1

PRMT5 [6] = target: T1, PRMT5; test: PRMT5 biochemical IC50 assay with SAM as cofactor; conditions: PRMT5, SAM as cofactor; read-out: SAM IC50

Q: With `C[C@H]1CC[C@H]([C@H]2CC[C@@H](O)CC2)N(C(=O)C(=O)Nc2cncc(C(N)=O)c2)C1` (single isomer, unassigned) [Compound 382] as the compound, how does the IC50 [1] read?
A: The IC50 was over 10000 nM.

Q: What about the IC50 (PRMT5 [2]) of the same compound?
A: The IC50 was over 500 nM.

Q: And the IC50 (PRMT5 [3])?
A: Its IC50 is over 500 nM.

Q: What about the IC50 [4] of the same compound?
A: The IC50 was over 1000 nM.

Q: What about the IC50 [5] of the same compound?
A: Its IC50 is over 1000 nM.

Q: What about the MTAP intact/deleted ratio [5] of the same compound?
A: The MTAP intact/deleted ratio was “C (an IC50 ratio of less than 3 fold)”.

Q: What about the IC50 (PRMT5 [6]) of the same compound?
A: The IC50 was over 500 nM.

Q: Which results are given for `Cc1c(NC(=O)C(=O)N2C[C@@H](C)CC[C@@H]2c2ccc(O)cc2)cnc(N)c1C` (single isomer, unassigned) [Compound 383]?
A: IC50 [1]: < 1000 nM; IC50 (PRMT5 [2]): 50 to 500 nM; IC50 (PRMT5 [3]): < 50 nM; IC50 [4]: > 1000 nM; IC50 [5]: < 100 nM; MTAP intact/deleted ratio [5]: A (an IC50 ratio greater than or equal to 10 fold); IC50 (PRMT5 [6]): 50 to 500 nM

Q: How did the IC50 [1] turn out when `Cc1cc(NC(=O)C(=O)N2CCCC[C@H]2c2cccc(N(C)C)c2)cnc1N` (single isomer, unassigned) [Compound 384] was run?
A: The IC50 was under 1000 nM.

Q: And the IC50 (PRMT5 [2])?
A: The IC50 was under 50 nM.

Q: What about the IC50 (PRMT5 [3]) of the same compound?
A: Its IC50 is under 50 nM.

Q: What about the IC50 [4] of the same compound?
A: The IC50 was over 1000 nM.

Q: What about the IC50 [5] of the same compound?
A: The IC50 was under 100 nM.

Q: What about the MTAP intact/deleted ratio [5] of the same compound?
A: The MTAP intact/deleted ratio was “A (an IC50 ratio greater than or equal to 10 fold)”.

Q: What about the IC50 (PRMT5 [6]) of the same compound?
A: The IC50 was 50 to 500 nM.

Q: What does the source list for `Cc1cc(NC(=O)C(=O)N2C[C@H](C)CC[C@H]2c2cccc(N(C)C)c2)cnc1N` (single isomer, unassigned) [Compound 386]?
A: IC50 [1]: < 1000 nM; IC50 (PRMT5 [2]): < 50 nM; IC50 (PRMT5 [3]): < 50 nM; IC50 [4]: 100 to 1000 nM; IC50 [5]: < 100 nM; MTAP intact/deleted ratio [5]: A (an IC50 ratio greater than or equal to 10 fold); IC50 (PRMT5 [6]): 50 to 500 nM

Q: Which IC50 [1] does the source give for `Cc1cc(NC(=O)C(=O)N2CCCC[C@@H]2c2cccc(N(C)C)c2)cnc1N` (single isomer, unassigned) [Compound 390] here?
A: The IC50 was over 10000 nM.

Q: What about the IC50 (PRMT5 [2]) of the same compound?
A: The IC50 was over 500 nM.

Q: What about the IC50 (PRMT5 [3]) of the same compound?
A: Its IC50 is 50 to 500 nM.

Q: What about the IC50 [4] of the same compound?
A: Its IC50 is over 1000 nM.

Q: What about the IC50 [5] of the same compound?
A: Its IC50 is over 1000 nM.

Q: And the MTAP intact/deleted ratio [5]?
A: Its MTAP intact/deleted ratio is “B (an IC50 ratio greater than or equal to 3 fold but lower than 10 fold)”.

Q: What about the IC50 (PRMT5 [6]) of the same compound?
A: The IC50 was 50 to 500 nM.

Q: Which IC50 [1] does the source give for `Cc1c(NC(=O)C(=O)N2C[C@H](C)CC[C@H]2c2ccc(O)cc2)cnc(N)c1C` (single isomer, unassigned) [Compound 391] here?
A: The IC50 was over 10000 nM.

Q: What about the IC50 (PRMT5 [2]) of the same compound?
A: The IC50 was over 500 nM.

Q: What about the IC50 (PRMT5 [3]) of the same compound?
A: The IC50 was over 500 nM.

Q: And the IC50 [4]?
A: Its IC50 is over 1000 nM.

Q: And the IC50 [5]?
A: Its IC50 is over 1000 nM.

Q: And the MTAP intact/deleted ratio [5]?
A: Its MTAP intact/deleted ratio is “C (an IC50 ratio of less than 3 fold)”.

Q: And the IC50 (PRMT5 [6])?
A: The IC50 was over 500 nM.

Q: What does the source list for `C[C@@H]1CC[C@@H]([C@H]2CC[C@@H](O)CC2)N(C(=O)C(=O)Nc2cncc(C(N)=O)c2)C1` (single isomer, unassigned) [Compound 393]?
A: IC50 [1]: > 10000 nM; IC50 (PRMT5 [2]): > 500 nM; IC50 (PRMT5 [3]): 50 to 500 nM; IC50 [4]: > 1000 nM; IC50 [5]: > 1000 nM; MTAP intact/deleted ratio [5]: B (an IC50 ratio greater than or equal to 3 fold but lower than 10 fold); IC50 (PRMT5 [6]): 50 to 500 nM

Q: For `C[C@H]1CC[C@H]([C@H]2CC[C@H](O)CC2)N(C(=O)C(=O)Nc2cncc(C(N)=O)c2)C1` (single isomer, unassigned) [Compound 394], which IC50 [1] is on record?
A: The IC50 was 1000 to 10000 nM.

Q: And the IC50 (PRMT5 [2])?
A: Its IC50 is 50 to 500 nM.

Q: And the IC50 (PRMT5 [3])?
A: The IC50 was under 50 nM.

Q: What about the IC50 [4] of the same compound?
A: Its IC50 is over 1000 nM.

Q: What about the IC50 [5] of the same compound?
A: The IC50 was 100 to 1000 nM.

Q: What about the MTAP intact/deleted ratio [5] of the same compound?
A: Its MTAP intact/deleted ratio is “A (an IC50 ratio greater than or equal to 10 fold)”.

Q: What about the IC50 (PRMT5 [6]) of the same compound?
A: The IC50 was 50 to 500 nM.

Q: For `C[C@@H]1CC[C@@H]([C@H]2CC[C@H](O)CC2)N(C(=O)C(=O)Nc2cncc(C(N)=O)c2)C1` (single isomer, unassigned) [Compound 395], which IC50 [1] is on record?
A: Its IC50 is over 10000 nM.

Q: And the IC50 (PRMT5 [2])?
A: Its IC50 is over 500 nM.

Q: What about the IC50 (PRMT5 [3]) of the same compound?
A: Its IC50 is over 500 nM.

Q: And the IC50 [4]?
A: The IC50 was over 1000 nM.

Q: What about the IC50 [5] of the same compound?
A: The IC50 was over 1000 nM.

Q: What about the MTAP intact/deleted ratio [5] of the same compound?
A: Its MTAP intact/deleted ratio is “C (an IC50 ratio of less than 3 fold)”.

Q: And the IC50 (PRMT5 [6])?
A: Its IC50 is over 500 nM.

Q: Which IC50 [1] does the source give for `C[C@H]1CC[C@H](c2ccc(N)cc2)N(C(=O)C(=O)Nc2cncc(C(N)=O)c2)C1` (single isomer, unassigned) [Compound 398] here?
A: The IC50 was over 10000 nM.

Q: What about the IC50 (PRMT5 [2]) of the same compound?
A: Its IC50 is over 500 nM.

Q: What about the IC50 (PRMT5 [3]) of the same compound?
A: Its IC50 is over 500 nM.

Q: And the IC50 [4]?
A: The IC50 was over 1000 nM.

Q: And the IC50 [5]?
A: Its IC50 is over 1000 nM.

Q: And the MTAP intact/deleted ratio [5]?
A: The MTAP intact/deleted ratio was “B (an IC50 ratio greater than or equal to 3 fold but lower than 10 fold)”.

Q: What about the IC50 (PRMT5 [6]) of the same compound?
A: The IC50 was over 500 nM.

Q: How did the IC50 [1] turn out when `Cc1cc(NC(=O)C(=O)N2CC[C@@H](C#N)C[C@H]2c2ccccc2)cnc1N` (single isomer, unassigned) [Compound 399] was run?
A: Its IC50 is 1000 to 10000 nM.

Q: What about the IC50 (PRMT5 [2]) of the same compound?
A: Its IC50 is 50 to 500 nM.

Q: And the IC50 (PRMT5 [3])?
A: The IC50 was under 50 nM.

Q: And the IC50 [4]?
A: Its IC50 is over 1000 nM.

Q: And the IC50 [5]?
A: The IC50 was under 100 nM.

Q: And the MTAP intact/deleted ratio [5]?
A: Its MTAP intact/deleted ratio is “A (an IC50 ratio greater than or equal to 10 fold)”.

Q: And the IC50 (PRMT5 [6])?
A: The IC50 was 50 to 500 nM.
